Test system: 2nd instar larva of Spodoptera frugiperda
Test: Laboratory test of larval mortality on maize leaves
Format: in vivo

Q: How did the “concentration in leaf tissue needed to achieve 100% mortality within 72 h” value turn out when CNC(=O)c1cc(Cl)cc(C)c1NC(=O)c1cc(Br)nn1-c1ncccc1Cl [Compound 2, 3-bromo-N-[4-chloro-2-methyl-6-[(methylamino)carbonyl]phenyl]-1-(3-chloro-2-pyridinyl)-1H-pyrazole-5-carboxamide] was run?
A: 0.037 micrograms per g of tissue

Q: And the “concentration in leaf tissue resulting in 50% mortality within 72 h” value?
A: 0.033 micrograms per g of leaf tissu
